What was measured:
[1] = test system: vancomycin susceptible receptor (VSR); details: previous measurements (known cantilever); cited from earlier work
[2] = test system: vancomycin susceptible receptor (VSR); experiment: Differential cantilever bending / surface stress of unpassivated VSR-functionalized cantilevers against Van; assay type: binding
Procedure: Detection of cantilever bending response in case of optical readout is performed, for example, by using serial time multiplexed optical beam method with a single position sensitive detector, although other readouts such as electronic or diffraction can be used. The laser spot (about 100 μm diameter) is aligned onto the free end of each sensor where the accuracy of alignment is confirmed by heating test. The expected precision of laser spot alignment is determined by calculating the bending variation at the maximum bending signals between individual cantilever sensors. Well aligned cantilevers at the maximum bending signals should yield a relative standard deviation of the bending signals of about ≤10%, preferably about ≤5%, between them. Correlating the response signal to the presence or absence of the molecule to be detected includes a first step of calculating the net change in stress, using the mathematical model reported above, and then a second step of associating the net change in stress value to the presence of absence of the molecule and, in case of presence, to the concentration level of the molecule.
Case I: Simultaneous functionalization of Au(top) and Si(bottom) surfaces of cantilever arrays: To systematically alter both Au(top) and Si(bottom) surfaces into chemically active sensing layers, the arrays of eight rectangular cantilevers were subjected to surface capture molecules in micro-capillary glass tubes (King Precision Glass, Claremont, Calif., USA), arranged according to the cantilever pitch size of 250 μm. The alkanethiols of self-assembled monolayers (SAMs), namely vancomycin susceptible receptor (VSR˜0.6 kDa) analogues to bacterial cell wall precursors that present uncrosslinked peptide motifs terminating in the sequence lysine-D-alanine-D-alanine and ‘inert’ SAM molecule terminating in triethylene glycol (PEG) whose detailed structural sequences have been described previously were diluted in ethanol solution to yield total concentrations of: 0.1 μM, 1 μM, 10 μM, 50 μM, 100 μM, 1000 μM, 2000 μM, 3000 μM and 4000 μM. Individual VSR and PEG concentrations were injected into micro-capillary glass tubes and cantilevers were then incubated inside the capillaries for 20 min, washed three times with ethanol and stored in distilled water until usage. The functionalization procedure was carried out without pre-adsorbing resistive protein monolayer bovine serum albumin (BSA) or PEG-silane, known for blocking nonspecific interactions.
To tune the receptor footprint (area per each receptor molecule) for enhanced biodetectability and to achieve satisfactory quantitative drug-target measurements, certain steps within the functionalization protocol were addressed. The first task was to define the percentage ratio of VSR by incorporating a receptor molecule with second SAM-forming molecule PEG. The ratio of VSR and PEG molecules dissolved in ethanol was varied to yield a total concentration in the solution of 1 μM, for which full surface coverage was established. The corresponding mixed ethanolic thiol solutions of VSR and ‘inert’ PEG mixed in the ratio of 30%, 70%, 90%, and 100% were used to coat cantilever arrays.
FIG. 1a-b show the functionalization of both surfaces of the cantilever with a self-assembled monolayer (SAM) of vancomycin (Van) susceptible receptor (VSR ˜0.6 kDa) analogues of the bacterial cell wall precursors that present uncrosslinked peptide motifs terminating in the sequence lysine-D-alanine-D-alanine. To eliminate the artifacts that produce non-specific signals differential measurements were performed in which reference polyethylene glycol(PEG)-coated cantilever bending signals were subtracted from the receptor signals.
This functionalization was performed without pre-adsorbing a resistive protein monolayer of bovine serum albumin (BSA) or PEG-silane, which are known to block non-specific interactions. […]

## CN[C@H](CC(C)C)C(=O)N[C@H]1C(=O)N[C@@H](CC(N)=O)C(=O)N[C@H]2C(=O)N[C@H]3C(=O)N[C@H](C(=O)N[C@H](C(=O)O)c4cc(O)cc(O)c4-c4cc3ccc4O)[C@H](O)c3ccc(c(Cl)c3)Oc3cc2cc(c3O[C@@H]2O[C@H](CO)[C@@H](O)[C@H](O)[C@H]2O[C@H]2C[C@](C)(N)[C@H](O)[C@H](C)O2)Oc2ccc(cc2Cl)[C@H]1O [Van, vancomycin]
[1]
  Net stress, previous measurements: 33 mN m^−1
[2]; Van 250 μM, VSR 50 μM in functionalizing solution, unpassivated cantilever
  Compressive stress (differential surface stress): 52 mN m^−1
[2]; Van 250 μM, VSR concentration beyond 50 μM (regime II)
  Stress signal σmax: ≈ 5 mN m^−1
[2]; Van 250 μM, VSR/PEG 100% receptor, total concentration 1 μM
  Cantilever stress: highest stress
[2]; Van 250 μM, VSR/PEG ~30% receptor, total concentration 1 μM
  Cantilever deflection signal: negligible
[2]; Van 250 μM, reference PEG-coated cantilevers
  Differential stress / bending response on reference PEG-coated cantilevers: no bending response and zero
[2]; in the presence of Van, uncoated Au and Si surfaces as control
  Mechanical response on uncoated Au and Si surfaces: undetectable
